Results reported in the supplement of paper PMC11061612.

Assays:
[1] = tested on: A2780 (Ovarian Carcinoma); experiment: Bliss excess, mean over the matrix (fraction); higher = more synergy
Outline: (§1)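 Bliss excess equals the observed combination effect minus the expected value EA + EB − EA·EB, where EA and EB are the effects of each agent alone. Combination Emax is the second-highest inhibition within the matrix. Inhibition was scaled from CellTiter-Glo 2.0 luminescence, with 0 set by vehicle wells and 1 by blank wells, after 72 hours of two-drug dosing of cells plated in 1536-well plates.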

AU565 (Breast Carcinoma) = experiment: as above
Outline: as §1

[2] = tested on: KYSE-140 (Esophageal Squamous Cell Carcinoma); experiment: as above
Outline: as §1

[3] = tested on: KYSE-220 (Esophageal Squamous Cell Carcinoma); experiment: as above
Outline: as §1

[4] = tested on: LS-411N (Colorectal Carcinoma); experiment: as above
Outline: as §1

[5] = tested on: 22RV1 (Prostate Carcinoma); experiment: combination Emax (second highest fraction inhibited in the dose matrix, 72 h); higher = more inhibition; extreme values may be limits of the assay
Outline: as §1

A101D (Melanoma) = experiment: as above
Outline: as §1

A204 (Rhabdomyosarcoma) = experiment: as above
Outline: as §1

[6] = tested on: CA46 (Burkitt's Lymphoma); experiment: as above
Outline: as §1

[7] = tested on: CGTH-W-1 (Thyroid Gland Carcinoma); experiment: as above
Outline: as §1

COLO-792 (Melanoma) = experiment: as above
Outline: as §1

HCC70 (Breast Carcinoma) = experiment: as above
Outline: as §1

[8] = tested on: HT55 (Colorectal Carcinoma); experiment: as above
Outline: as §1

IM-9 (Non-Cancerous) = experiment: as above
Outline: as §1

[9] = tested on: JVM-2 (B-Cell Non-Hodgkin's Lymphoma); experiment: as above
Outline: as §1

NB13 (Neuroblastoma) = experiment: as above
Outline: as §1

[10] = tested on: NCI-H1651 (Lung Adenocarcinoma); experiment: as above
Outline: as §1

[11] = tested on: NCI-H441 (Lung Adenocarcinoma); experiment: as above
Outline: as §1

[12] = tested on: SW620 (Colorectal Carcinoma); experiment: as above
Outline: as §1

[13] = tested on: huH-1 (Hepatocellular Carcinoma); experiment: as above
Outline: as §1

Row | Structure (SMILES) | Bliss excess [1] | Bliss excess (AU565 (Breast Carcinoma)) | Bliss excess [2] | Bliss excess [3] | Bliss excess [4] | combination Emax [5] | combination Emax (A101D (Melanoma)) | combination Emax (A204 (Rhabdomyosarcoma)) | combination Emax [6] | combination Emax [7] | combination Emax (COLO-792 (Melanoma)) | combination Emax (HCC70 (Breast Carcinoma)) | combination Emax [8] | combination Emax (IM-9 (Non-Cancerous)) | combination Emax [9] | combination Emax (NB13 (Neuroblastoma)) | combination Emax [10] | combination Emax [11] | combination Emax [12] | combination Emax [13]
1 | CN(CCO)CC[C@H](CSc1ccccc1)Nc1ccc(S(=O)(=O)NC(=O)c2ccc(N3CCC([C@@H](O)c4ccccc4-c4ccc(Cl)cc4)CC3)cc2)cc1S(=O)(=O)C(F)(F)F [AZD4320] + CN(C)CCCOc1ccc(-c2ccc3ncc4c(c3c2)n(C2CCOCC2)c(=O)n4C)cn1 [AZD0156] (first compound max 1 µM, 7x7, partner max 1 µM) | -0.0519 | 0.0203 | -0.0257 | -0.0385 | -0.0009 | 0.385 | 0.413 | 0.223 | 0.349 | 0.119 | 0.856 | 0.281 | 0.161 | 0.459 | 0.487 | 1 | 0.0674 | 0.286 | 0.366 | 0.122
2 | CCN(CCO)CCCOc1ccc2c(Nc3cc(CC(=O)Nc4cccc(F)c4)[nH]n3)ncnc2c1 [AZD2811] + O=C(c1cc(Cc2n[nH]c(=O)c3ccccc23)ccc1F)N1CCN(C(=O)C2CC2)CC1 [Olaparib] (first compound max 1 µM, 7x7, partner max 10 µM) | 0.0453 | -0.011 | 0.0429 | 0.01 | -0.0082 | 0.337 | 0.261 | 0.387 | 0.248 | 0.291 | 0.374 | 0.675 | 0.291 | 0.981 | 0.738 | 0.626 | 0.248 | 0.227 | 0.281 | 0.415
3 | CN(C)CCCOc1ccc(-c2ccc3ncc4c(c3c2)n(C2CCOCC2)c(=O)n4C)cn1 [AZD0156] + CCN(CCO)CCCOc1ccc2c(Nc3cc(CC(=O)Nc4cccc(F)c4)[nH]n3)ncnc2c1 [AZD2811] (first compound max 1 µM, 7x7, partner max 1 µM) | 0.0336 | 0.0021 | 0.025 | -0.0095 | -0.0168 | 0.267 | 0.203 | 0.297 | 0.291 | 0.196 | 0.358 | 0.604 | 0.16 | 0.944 | 0.719 | 0.479 | 0.107 | 0.112 | 0.158 | 0.317
4 | Cc1c2c(nn1C)CSCc1cc(n(C)n1)CSc1cc(c3ccccc3c1)OCCCc1c(C(=O)O)n(C)c3c-2c(Cl)ccc13 [AZD5991] + CC1(C)CCC(CN2CCN(c3ccc(C(=O)NS(=O)(=O)c4ccc(NCC5CCOCC5)c([N+](=O)[O-])c4)c(Oc4cnc5[nH]ccc5c4)c3)CC2)=C(c2ccc(Cl)cc2)C1 [Venetoclax] (first compound max 1 µM, 7x7, partner max 1 µM) | 0.0777 | 0.0115 | 0.0154 | 0.0093 | 0 | 0.462 | 0.989 | 0.513 | 0.118 | 0.257 | 0.997 | 0.938 | 0.13 | 1 | 0.639 | 0.546 | 0.213 | 0.214 | 0.191 | 0.162
5 | CS(=O)(=O)CCNCc1ccc(-c2ccc3ncnc(Nc4ccc(OCc5cccc(F)c5)c(Cl)c4)c3c2)o1 [Lapatinib] + C[C@@H](Oc1cc(-c2cnn(C3CCNCC3)c2)cnc1N)c1c(Cl)ccc(F)c1Cl [Crizotinib] (first compound max 10 µM, 7x7, partner max 10 µM) | -0.0277 | -0.0287 | -0.0083 | -0.0397 | -0.033 | 0.706 | 0.971 | 0.498 | 0.861 | 0.853 | 0.981 | 0.685 | 0.931 | 0.991 | 0.918 | 0.949 | 0.566 | 0.6 | 0.921 | 0.671
6 | COc1nnc2ccc(N3CCC(c4ccc(OCCN5CCN(C)C(=O)[C@H]5C)cc4)CC3)nn12 [AZD5153] + Cc1c2c(nn1C)CSCc1cc(n(C)n1)CSc1cc(c3ccccc3c1)OCCCc1c(C(=O)O)n(C)c3c-2c(Cl)ccc13 [AZD5991] (first compound max 1 µM, 7x7, partner max 1 µM) | -0.0324 | -0.0342 | -0.124 | -0.0229 | 0.0068 | 0.857 | 0.924 | 0.73 | 0.64 | 0.428 | 1 | 0.96 | 0.61 | 0.886 | 0.711 | 0.907 | 0.515 | 0.384 | 0.512 | 0.435
7 | CN(C)CCCOc1ccc(-c2ccc3ncc4c(c3c2)n(C2CCOCC2)c(=O)n4C)cn1 [AZD0156] + C=CCn1c(=O)c2cnc(Nc3ccc(N4CCN(C)CC4)cc3)nc2n1-c1cccc(C(C)(C)O)n1 [AZD1775] (first compound max 1 µM, partner max 1 µM) | -0.0284 | -0.016 | -0.0031 | -0.0432 | -0.0042 | 0.346 | 0.495 | 0.27 | 0.636 | 0.188 | 0.538 | 0.542 | 0.407 | 0.986 | 0.888 | 0.906 | 0.62 | 0.329 | 0.495 | 0.592
8 | COc1cccc(OCCCN)c1-c1cc(Nc2cnc(C#N)cn2)n[nH]1 [Prexasertib] + C=CCn1c(=O)c2cnc(Nc3ccc(N4CCN(C)CC4)cc3)nc2n1-c1cccc(C(C)(C)O)n1 [AZD1775] (first compound max 1 µM, partner max 1 µM) | 0.155 | 0.0991 | 0.0329 | 0.0333 | -0.0017 | 0.619 | 0.832 | 0.648 | 0.757 | 0.765 | 0.593 | 0.955 | 0.67 | 1 | 0.942 | 0.935 | 0.822 | 0.539 | 0.853 | 0.811
9 | Cc1c2c(nn1C)CSCc1cc(n(C)n1)CSc1cc(c3ccccc3c1)OCCCc1c(C(=O)O)n(C)c3c-2c(Cl)ccc13 [AZD5991] + C[C@@H]1COCCN1C2=NC(=NC(=C2)C3(CC3)[S@](=N)(=O)C)C4=C5C=CNC5=NC=C4 [AZD6738] (first compound max 1 µM, 7x7, partner max 10 µM) | -0.0032 | 0.0006 | 0.0119 | -0.0328 | 0.0069 | 0.71 | 1 | 0.773 | 0.449 | 0.389 | 1 | 0.967 | 0.503 | 1 | 0.912 | 0.952 | 0.714 | 0.39 | 0.543 | 0.623
10 | Cc1c2c(nn1C)CSCc1cc(n(C)n1)CSc1cc(c3ccccc3c1)OCCCc1c(C(=O)O)n(C)c3c-2c(Cl)ccc13 [AZD5991] + Cc1cc2ncnn2cc1Nc1ncc2c(n1)n(C1CCOCC1)c(=O)n2C [AZD7648] (first compound max 1 µM, 7x7, partner max 10 µM) | -0.0224 | -0.0172 | -0.0345 | 0.0083 | -0.0492 | 0.575 | 0.997 | 0.659 | 0.281 | 0.181 | 1 | 0.926 | 0.242 | 0.561 | 0.68 | 0.245 | 0.33 | 0.259 | 0.213 | 0.337
11 | COc1cccc(OCCCN)c1-c1cc(Nc2cnc(C#N)cn2)n[nH]1 [Prexasertib] + CN(C)CCCOc1ccc(-c2ccc3ncc4c(c3c2)n(C2CCOCC2)c(=O)n4C)cn1 [AZD0156] (first compound max 1 µM, 7x7, partner max 1 µM) | 0.0127 | -0.073 | -0.0129 | -0.026 | -0.0336 | 0.532 | 0.737 | 0.633 | 0.745 | 0.777 | 0.386 | 0.922 | 0.614 | 1 | 0.949 | 0.935 | 0.677 | 0.513 | 0.696 | 0.756
12 | Cn1cnc2c(F)c(Nc3ccc(Br)cc3Cl)c(C(=O)NOCCO)cc21 [Selumetinib] + C[C@@H]1COCCN1C2=NC(=NC(=C2)C3(CC3)[S@](=N)(=O)C)C4=C5C=CNC5=NC=C4 [AZD6738] (first compound max 10 µM, 7x7, partner max 10 µM) | 0.0429 | -0.0014 | -0.0888 | -0.0446 | -0.0195 | 0.526 | 0.76 | 0.388 | 0.579 | 0.162 | 0.589 | 0.778 | 0.735 | 0.981 | 0.825 | 0.855 | 0.377 | 0.36 | 0.781 | 0.537
13 | C=CCn1c(=O)c2cnc(Nc3ccc(N4CCN(C)CC4)cc3)nc2n1-c1cccc(C(C)(C)O)n1 [AZD1775] + C[C@@H]1COCCN1C2=NC(=NC(=C2)C3(CC3)[S@](=N)(=O)C)C4=C5C=CNC5=NC=C4 [AZD6738] (first compound max 1 µM, partner max 10 µM) | 0.0221 | -0.0083 | 0.0259 | 0.0242 | 0.0732 | 0.636 | 0.749 | 0.369 | 0.739 | 0.434 | 0.474 | 0.898 | 0.782 | 0.999 | 0.901 | 0.953 | 0.823 | 0.536 | 0.83 | 0.794
